Experiments:
[1] = In vivo release study (fluorescence IVIS imaging); set-up: species or system non-tumor-bearing mice; conditions: each time point: first 24 hours (2′3′-cGAMP), first week (IL-15sa)
Text: To evaluate the in vivo release profiles of Cy7 carboxylic acid (a model compound for R848), anti-PD-1, IL-15sa, and 2′3′-cGAMP, hydrogels containing the fluorophore or one of the fluorescently labeled payloads were surgically implanted into non-tumor-bearing mice.
The loading and release properties of the hydrogel were examined in additional experiments. […] It was then confirmed that the hydrogel extends the release of the small molecules and biologics in vivo. Cy7 carboxylic acid (Cy7-CA) was used as a model small molecule payload, as its physical properties are very similar to those of resiquimod (R848). Cy7-CA was administered to non-tumor-bearing mice, either in solution or loaded in a scaffold placed by the fourth mammary fat pad. The mice were assessed by fluorescence IVIS imaging (FIG. 37B), and the data were quantified (FIG. 37C). Whereas a loss of ˜60% of the signal was detected within two hours of administration of the fluorophore in solution, this amount of signal decay required 24 hours for the fluorophore loaded in the hydrogel. Over this time course, there was a […] for the latter group, on average.
To confirm that the hydrogel sustains the release of the small molecule and biologics in vivo, fluorescently labeled versions of 2 ? […]

[2] = In vitro release study of payloads from hydrogel; assay type: physicochemical; conditions: sink conditions, PBS or media
Method: To determine the release kinetics of each payload from the hydrogel, a hydrogel loaded with fluorescently tagged anti-PD-1, fluorescently tagged IL-15sa, lenalidomide, celecoxib, fluorescently tagged 2′3′-cGAMP, or R848 was immersed in 3 mL pH 7.4 phosphate buffered saline (PBS). At each time point, 1 mL of media was taken out and the same amount of fresh buffer was added back. The amount of payload that had been released was then measured using a fluorescence plate reader or via HPLC.
Hydrogels were prepared according to the general procedure in Example 1. They contained either one or all of the payloads indicated. Fluorescent dyes were conjugated to the proteins to facilitate the measurement of protein release kinetics. The hydrogels were immersed in 3 mL of buffer (either PBS only, PBS with Tween80 (0.2% v/v), or RPMI with 10% FBS) and incubated at 37° C. with stirring.
At the indicated sampling time points, 1 mL of buffer was recovered for measurement and was replaced by an equivalent volume of fresh buffer. The aliquots were measured using a fluorescence plate reader to determine protein concentration. Aliquots were also assessed by HPLC to determine small molecule concentration.

[3] = tested on: 4T1-Luc2 syngeneic breast cancer cells; conditions: hydrogel with IL-15sa and anti-PD-1 (devices 1, 14-16)
Method: Seven-week-old female Balb/c mice were inoculated orthotopically with 100,000 4T1-Luc2 syngeneic breast cancer cells (into the fourth mammary fat pad). After 10 days, the mice were anesthetized, tumors were surgically resected, and compositions were placed in the resection site. […] The order of surgeries avoided systematic error by dividing up the groups. Standard follow-up care (wound clips, analgesic) was provided.
For the metastatic breast cancer model, 10^5 4T1-Luc2 or 4T1 cells (in 30 μl DPBS) were inoculated orthotopically into the fourth mammary pad of mice to generate a local tumor mass. Cells were injected without any incision to expose the fat pad. Mice were randomly assigned to treatment groups, and surgery was performed 10 days after tumor inoculation. For the metastatic melanoma and lung cancer models, 10^6B16-BL6 or 5×10^5 LLC cells (in 100 μl DPBS) were inoculated subcutaneously in mice to generate a local tumor mass. Mice were randomly assigned to treatment groups, and surgery was performed when tumor volumes reached ˜600 mm^3. While mice were kept under anesthesia at 2% isoflurane, the tumor was resected, and the hydrogel was placed in the site of the resultant cavity at the time of surgery. The wound was closed with medical clips. Control experiments were performed in which therapy was administered in solution at the site of surgery, intraperitoneally, or intravenously. For tumor re-challenge experiments, 10^4 4T1-Luc2 cells were inoculated in the contralateral fourth mammary fat pad. The surgeries were performed independently at least three times, and the surgeon was often blinded.
After surgery, mice were inspected weekly for tumor recurrence and distal metastasis by bioluminescence imaging (BLI). To this end, 10 min after intraperitoneal injection of D-luciferin (150 mg/kg), a substrate of Luc2, the mice were anesthetized with 2% isoflurane and imaged using an IVIS Spectrum In Vivo Imaging System (Perkin Elmer).
A series of compositions described above in Table 2 were evaluated in viva. In each group of evaluations, seven-week-old female Balb/c mice were inoculated orthotopically with 100,000 4T1-Luc2 syngeneic breast cancer cells (into the fourth mammary fat pad). After 10 days, mice were anesthetized, tumors were surgically resected, and the composition was placed in the resection site. Tumor relapse and metastasis were monitored via imaging over the course of 6 weeks.
Female BALB/cJ mice were inoculated orthotopically with 4T1-Luc2 breast cancer cells in their fourth mammary fat pad. Nine days later, the mice were imaged by bioluminescent IVIS imaging to confirm that the size of the tumors was consistent across animals to enable randomization into groups. On day 10 post-tumor inoculation, tumors (˜100 mm^3) were resected, and device 1 was placed in the tumor resection site. Controls included no treatment (sham), empty hydrogel (device 8/hydrogel 4), or delivery of the triple combination in solution (S+I+P)—via intraperitoneal injection, intravenous injection, or local administration.

Substance: 2′3′-cGAMP
- percentage remaining locally, hydrogel relative to free compound [1]: nearly twice
- in vitro release kinetics (time scale) [2]: hours for the small molecule
- survival benefit as innate immune activator component [3]: conferred greater survival benefit than the Toll-like receptor (TLR) 7/8 agonist R848

Reference: US10413612B2, “Method of treating cancer with a biomaterial and a toll-like receptor agonist” (Dana-Farber Cancer Institute, Inc., priority 2016, dated 2019)
